Source: patent US8138374B2, “Composition for external application to skin” (Shiseido Company, Ltd., priority 2007, dated 2012)

Assay: Solubility evaluation (appearance and solubility)
Format: physicochemical
Details: for Solubility (%) Ethanol / Appearance (Room Temperature) / Solubility (%) Water: room temperature; for Solubility (%) Ethanol / Solubility (%) Water: judged by appearance, ">" = concentration at which dissolution was confirmed, actual solubility greater than or equal
Description: Furthermore, dissolution was evaluated based on appearance after preparing a solution at room temperature. The solubilities shown in the table indicate the concentration at which dissolution was confirmed, and those results shown with a “>” symbol in the table indicate the concentration at which the substance was confirmed to dissolve, and actual solubility is greater than or equal to this concentration.

Row | Solubility (%) Ethanol (ethanol) [%] | Appearance (Room Temperature) | Solubility (%) Water (water) [%] | solubility in ethanol (in words) (ethanol) | solubility in water (in words) (water) | SMILES
1 | >14.1 | White crystal | >77 | – | – | CNCC(=O)N(C)C.Cl [N,N-dimethyl-2-(methylamino)acetoamide hydrochloride]
2 | >58 | Liquid | >55 | – | – | CNCC(=O)N(C)C [N,N-dimethyl-2-(methylamino)acetoamide]
3 | 0.10 | – | 71.5 | poorly soluble | high solubility | CNCC(=O)O [Sarcosine, reference compound]
